Tested on: HIV-1 vectors bearing the S230N IN mutant
Test: Single-round HIV-1 replication antiviral assay, S230N IN mutant
Type: cell-based
Settings: for EC50: Human immunodeficiency virus 1, HOS, 48 h, read-out: EC50, antiviral potency, S230N IN mutant
Excerpt: To further evaluate the antiviral activities of select compounds, we determined their EC50 values against the IN mutant S230N, which has been selected in vitro against an early Merck INSTI L810,830, a prototype for naphthyridine analogs.
Human embryonic kidney cell culture cell line 293 was acquired from the American Type Culture Collection (ATCC). The human osteosarcoma cell line, HOS, was obtained from Dr. Richard Schwartz (Michigan State University, East Lansing, MI, USA) and grown in Dulbecco’s modified Eagle’s medium (Invitrogen, Carlsbad, CA, USA) supplemented with 5% (v/v) fetal bovine serum, 5% newborn calf serum, and penicillin (50 units/mL) plus streptomycin (50 µg/mL; Quality Biological, Gaithersburg, MD, USA). The transfection vector, pNLNgoMIVR-ΔLUC was made from pNLNgoMIVR-ΔEnv.HSA by removing the HSA reporter gene and replacing it with a luciferase reporter gene between the NotI and XhoI restriction sites. To produce the new IN mutant S230N used in this study, the IN open reading frame was removed from pNLNgoMIVR-ΔENV.LUC by digestion with KpnI and SalI, and the resulting fragment was inserted between the KpnI and SalI sites of pBluescript KS+. Using that construct as the wild-type template, we prepared the following HIV-1 IN mutant S230N using the QuikChange II XL site-directed mutagenesis kit (Agilent Technologies, Santa Clara, CA, USA) protocol. The following sense oligonucleotides were used with matching cognate antisense oligonucleotides (not shown) (Integrated DNA Technologies, Coralville, IA, USA) in the mutagenesis: S230N 5′-[…]-3′. The DNA sequence of the IN mutant S230N construct was verified independently by DNA sequence determination. The mutated IN coding sequences from pBluescript KS+ were then subcloned into pNLNgoMIVR-ΔEnv.LUC (between the KpnI and SalI sites) to produce mutant HIV-1 constructs, which were also checked by DNA sequencing. […]. On the day prior to transfection, 293 cells were plated on 100 mm diameter dishes at a density of 1.5 × 10^6 cells per plate. Next, 293 cells were transfected with 16 µg of pNLNgoMIVR^-ΔLUC and 4 µg of pHCMV-g (obtained from Dr. Jane Burns, University of California, San Diego) using the calcium phosphate method. At approximately 6 h after the calcium phosphate precipitate was added, 293 cells were washed twice with phosphate-buffered saline (PBS) and incubated with fresh media for 48 h. The virus-containing supernatants were then harvested, clarified by low-speed centrifugation, filtrated, and diluted for preparation in antiviral infection assays. On the day prior to the screen, HOS cells were seeded in a 96-well luminescence cell culture plate at a density of 4000 cells in 100 µL per well. On the day of the screen for cellular cytotoxicity determination, cells were treated with compounds from a concentration range of 250 µM to 0.05 µM and then incubated at 37 °C for 48 h. On the day of the screen for antiviral activity infection assays, cells were treated with compounds from a concentration range of 5 µM to 0.0001 µM using 11 serial dilutions and then incubated at 37 °C for 3 h. After compound incorporation and activation in the cell, 100 µL of virus-stock (WT or mutant) diluted to achieve a luciferase signal between 0.2 and 1.5 Relative Luciferase Units (RLUs) was added to each well and further incubated at 37 °C for 48 h. Cellular cytotoxicity was measured by using the ATP Lite Luminescence detection system and monitored by adding 50 µL of cell lysis buffer from the Luminescence ATP detection assay to each well followed by mixing at 700 rpm at room temperature for 5 min using a compact thermomixer. […]

| SMILES | EC50 | Ratio of the antiviral potencies after and before hydrogenation (S230N) (EC50 of saturated 7 over EC50 of unsaturated 6, S230N IN) |
| --- | --- | --- |
| O=C(NCc1ccc(F)cc1F)c1cn2ccn(CCCCCCO)c(=O)c2c(O)c1=O [Compound 6c, N-(2,4-Difluorobenzyl)-9-hydroxy-2-(6-hydroxyhexyl)-1,8-dioxo-1,8-dihydro-2H-pyrido [1,2-a]pyrazine-7-carboxamide] | 9.3 nM |  |
| O=C(NCc1ccc(F)cc1F)c1cn2ccn(CCCCO)c(=O)c2c(O)c1=O [Compound 6e, N-(2,4-Difluorobenzyl)-9-hydroxy-2-(4-hydroxybutyl)-1,8-dioxo-1,8-dihydro-2H-pyrido [1,2-a]pyrazine-7-carboxamide] | 30.7 nM |  |
| O=C(NCc1ccc(F)cc1F)c1cn2ccn(CCCCCO)c(=O)c2c(O)c1=O [Compound 6d, N-(2,4-Difluorobenzyl)-9-hydroxy-2-(5-hydroxypentyl)-1,8-dioxo-1,8-dihydro-2H-pyrido [1,2-a]pyrazine-7-carboxamide] | 15.4 nM |  |
| O=C(NCc1ccc(F)cc1F)c1cn2c(c(O)c1=O)C(=O)N(CCCCO)CC2 [Compound 7e, N-(2,4-Difluorobenzyl)-9-hydroxy-2-(4-hydroxybutyl)-1,8-dioxo-1,3,4,8-tetrahydro-2H-pyrido [1,2-a]pyrazine-7-carboxamide] | 101 nM | 3.28 |
| O=C(NCc1ccc(F)cc1F)c1cn2c(c(O)c1=O)C(=O)N(CCCCCCO)CC2 [Compound 7c, N-(2,4-Difluorobenzyl)-9-hydroxy-2-(6-hydroxyhexyl)-1,8-dioxo-1,3,4,8-tetrahydro-2H-pyrido [1,2-a]pyrazine-7-carboxamide] | 38 nM |  |

From article PMC9919513, “A Practical Approach to Bicyclic Carbamoyl Pyridones with Application to the Synthesis of HIV-1 Integrase Strand Transfer Inhibitors” (Molecules, 2023)
